Test results from ChEMBL document CHEMBL1201861, “Genomics of Drug Sensitity in Cancer screening data, Wellcome Trust Sanger Institute”.
pIC50: −log10 of the molar value.

How the values were obtained:
Assay in all cases: cells
G-401 = type: functional, cell-based, Homo sapiens; conditions: Homo sapiens, G-401
Description: SANGER: Inhibition of human G-401 cell growth in a cell viability assay.

NCI-H23 = type: functional, cell-based, Homo sapiens; conditions: Homo sapiens, NCI-H23
Description: SANGER: Inhibition of human NCI-H23 cell growth in a cell viability assay.

CAL-72 = type: functional, cell-based, Homo sapiens; conditions: Homo sapiens, CAL-72;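 further: cell viability assay measuring inhibition of proliferation in the CAL-72 cell line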
Description: SANGER: Inhibition of human CAL-72 cell growth in a cell viability assay.

KM12 = type: functional, cell-based, Homo sapiens; conditions: Homo sapiens, KM12;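 further: KM12 cell growth inhibition, read out with a cell viability assay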
Description: SANGER: Inhibition of human KM12 cell growth in a cell viability assay.

HCC1806 = type: functional, cell-based, Homo sapiens; conditions: Homo sapiens, HCC1806;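 further: growth inhibition of the cancer cell line, determined with a cell viability assay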
Description: SANGER: Inhibition of human HCC1806 cell growth in a cell viability assay.

LU-99A = type: functional, cell-based, Homo sapiens; conditions: Homo sapiens, LU-99A;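 further: growth inhibition of LU-99A cells, read out with a cell viability assay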
Description: SANGER: Inhibition of human LU-99A cell growth in a cell viability assay.

NCI-H650 = type: functional, cell-based, Homo sapiens; conditions: Homo sapiens, NCI-H650;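 further: growth inhibition of NCI-H650 cells, read out by a viability assay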
Description: SANGER: Inhibition of human NCI-H650 cell growth in a cell viability assay.

PSN1 = type: functional, cell-based, Homo sapiens; conditions: Homo sapiens, PSN1;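 further: suppression of growth of human PSN1 cells, read out by a cell viability assay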
Description: SANGER: Inhibition of human PSN1 cell growth in a cell viability assay.

HuCCT-1 = type: functional, cell-based, Homo sapiens, HuCCT1; conditions: Homo sapiens, HuCCT-1;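 further: growth inhibition of HuCCT-1 cells, read out by a cell viability assay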
Description: SANGER: Inhibition of human HuCCT1 cell growth in a cell viability assay.

HT1197 = type: functional, cell-based, Homo sapiens, HT-1197; conditions: Homo sapiens, HT1197
Description: SANGER: Inhibition of human HT-1197 cell growth in a cell viability assay.

COR-L88 = type: functional, cell-based; conditions: Homo sapiens;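 further: growth inhibition of COR-L88 cells, read out with a cell viability assay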
Description: SANGER: Inhibition of human COR-L88 cell growth in a cell viability assay.

A673 = type: functional, cell-based, Homo sapiens; conditions: Homo sapiens, A673;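 further: growth inhibition of human A673 cells, read out through a cell viability assay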
Description: SANGER: Inhibition of human A673 cell growth in a cell viability assay.

A498 = type: functional, cell-based, Homo sapiens; conditions: Homo sapiens, A498;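 further: growth inhibition of human A498 cells, read out with a cell viability assay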
Description: SANGER: Inhibition of human A498 cell growth in a cell viability assay.

CTB-1 = type: functional, cell-based; conditions: Homo sapiens
Description: SANGER: Inhibition of human CTB-1 cell growth in a cell viability assay.

NCI-H1563 = type: functional, cell-based, Homo sapiens; conditions: Homo sapiens, NCI-H1563;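 further: growth inhibition of human NCI-H1563 cells, read out with a cell viability assay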
Description: SANGER: Inhibition of human NCI-H1563 cell growth in a cell viability assay.

ABC-1 = type: functional, cell-based, Homo sapiens; conditions: Homo sapiens, ABC-1;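 further: growth inhibition of human ABC-1 cells, read out by a cell viability assay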
Description: SANGER: Inhibition of human ABC-1 cell growth in a cell viability assay.

NCI-H1755 = type: functional, cell-based, Homo sapiens; conditions: Homo sapiens, NCI-H1755;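 further: cell viability readout used to measure growth inhibition of NCI-H1755 cells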
Description: SANGER: Inhibition of human NCI-H1755 cell growth in a cell viability assay.

COLO-668 = type: functional, cell-based, Homo sapiens; conditions: Homo sapiens, COLO-668
Description: SANGER: Inhibition of human COLO-668 cell growth in a cell viability assay.

LCLC-103H cell line = type: functional, cell-based, Homo sapiens; conditions: Homo sapiens, LCLC-103H
Description: SANGER: Inhibition of human LCLC-103H cell growth in a cell viability assay.

Huh-7 = type: functional, cell-based, Homo sapiens; conditions: Homo sapiens, Huh-7;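 further: HuH-7 cell growth inhibition, read out with a cell viability assay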
Description: SANGER: Inhibition of human HuH-7 cell growth in a cell viability assay.

NB12 = type: functional, cell-based, Homo sapiens; conditions: Homo sapiens, NB12;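 further: growth inhibition of human NB12 cells, read out by a cell viability assay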
Description: SANGER: Inhibition of human NB12 cell growth in a cell viability assay.

NCI-H1693 = type: functional, cell-based, Homo sapiens; conditions: Homo sapiens, NCI-H1693;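 further: growth inhibition of the human cell line, read out with a cell viability assay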
Description: SANGER: Inhibition of human NCI-H1693 cell growth in a cell viability assay.

MC116 = type: functional, cell-based; conditions: Homo sapiens;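 further: growth inhibition of MC116 cells, read out with a cell viability assay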
Description: SANGER: Inhibition of human MC116 cell growth in a cell viability assay.

HCC 2998 = type: functional, cell-based, Homo sapiens; conditions: Homo sapiens, HCC 2998;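 further: growth inhibition of human HCC2998 cells, measured with a cell viability read-out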
Description: SANGER: Inhibition of human HCC2998 cell growth in a cell viability assay.

KYSE-140 = type: functional, cell-based, Homo sapiens; conditions: Homo sapiens, KYSE-140;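 further: cell viability assay measuring growth inhibition in human KYSE-140 cells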
Description: SANGER: Inhibition of human KYSE-140 cell growth in a cell viability assay.

BV-173 = type: functional, cell-based; conditions: Homo sapiens
Description: SANGER: Inhibition of human BV-173 cell growth in a cell viability assay.

CaR-1 = type: functional, cell-based, Homo sapiens; conditions: Homo sapiens, CaR-1;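 further: growth inhibition of human CaR-1 cancer cells, read out with a cell viability assay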
Description: SANGER: Inhibition of human CaR-1 cell growth in a cell viability assay.

NCI-H2342 = type: functional, cell-based; conditions: Homo sapiens;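 further: growth inhibition of the cancer cell line, determined with a cell viability assay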
Description: SANGER: Inhibition of human NCI-H2342 cell growth in a cell viability assay.

A 172 = type: functional, cell-based, Homo sapiens; conditions: Homo sapiens, A 172;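 further: growth inhibition of A172 cells, measured with a cell viability readout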
Description: SANGER: Inhibition of human A172 cell growth in a cell viability assay.

A101D = type: functional, cell-based, Homo sapiens; conditions: Homo sapiens, A101D;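 further: growth inhibition of the cell line, measured with a viability assay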
Description: SANGER: Inhibition of human A101D cell growth in a cell viability assay.

EGI-1 = type: functional, cell-based, Homo sapiens; conditions: Homo sapiens, EGI-1;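 further: cell viability readout used to gauge growth inhibition of EGI-1 cells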
Description: SANGER: Inhibition of human EGI-1 cell growth in a cell viability assay.

KGN = type: functional, cell-based, Homo sapiens; conditions: Homo sapiens, KGN;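 further: growth inhibition of KGN cells, read out with a cell viability assay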
Description: SANGER: Inhibition of human KGN cell growth in a cell viability assay.

CAL-33 = type: functional, cell-based, Homo sapiens; conditions: Homo sapiens, CAL-33;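 further: growth inhibition of CAL-33 cells, read out with a cell viability assay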
Description: SANGER: Inhibition of human CAL-33 cell growth in a cell viability assay.

OAW-28 = type: functional, cell-based, Homo sapiens; conditions: Homo sapiens, OAW-28;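 further: growth inhibition of OAW-28 cells, read out with a cell viability assay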
Description: SANGER: Inhibition of human OAW-28 cell growth in a cell viability assay.

KNS-81-FD = type: functional, cell-based, Homo sapiens; conditions: Homo sapiens, KNS-81-FD;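 further: growth inhibition of KNS-81-FD cells, read out with a cell viability assay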
Description: SANGER: Inhibition of human KNS-81-FD cell growth in a cell viability assay.

MDA-MB-415 = type: functional, cell-based; conditions: Homo sapiens
NB17 = type: functional, cell-based; conditions: Homo sapiens;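 further: growth inhibition of NB17 cells, read out with a cell viability assay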
Description: SANGER: Inhibition of human NB17 cell growth in a cell viability assay.

SJSA-1 = type: functional, cell-based, Homo sapiens; conditions: Homo sapiens, SJSA-1;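 further: growth inhibition of human SJSA-1 cells, read out through a cell viability measurement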
Description: SANGER: Inhibition of human SJSA-1 cell growth in a cell viability assay.

ChaGo-K-1 = type: functional, cell-based; conditions: Homo sapiens;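 further: growth inhibition of ChaGo-K-1 cells, read out with a cell viability assay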
Description: SANGER: Inhibition of human ChaGo-K-1 cell growth in a cell viability assay.

SHP77 = type: functional, cell-based, Homo sapiens, SHP-77; conditions: Homo sapiens, SHP77;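 further: growth inhibition of human SHP-77 cells measured by a cell viability assay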
Description: SANGER: Inhibition of human SHP-77 cell growth in a cell viability assay.

WM-115 = type: functional, cell-based, Homo sapiens; conditions: Homo sapiens, WM-115
Description: SANGER: Inhibition of human WM-115 cell growth in a cell viability assay.

C8166 = type: functional, cell-based; conditions: Homo sapiens;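 further: growth inhibition of human C8166 cells measured by a cell viability assay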
Description: SANGER: Inhibition of human C8166 cell growth in a cell viability assay.

OAW-42 = type: functional, cell-based, Homo sapiens; conditions: Homo sapiens, OAW-42;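 further: growth inhibition of OAW-42 cells, read out with a cell viability assay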
Description: SANGER: Inhibition of human OAW-42 cell growth in a cell viability assay.

SCC-15 = type: functional, cell-based, Homo sapiens; conditions: Homo sapiens, SCC-15;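 further: growth inhibition of SCC-15 cells, read out with a cell viability assay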
Description: SANGER: Inhibition of human SCC-15 cell growth in a cell viability assay.

HT-1376 = type: functional, cell-based, Homo sapiens; conditions: Homo sapiens, HT-1376
Description: SANGER: Inhibition of human HT-1376 cell growth in a cell viability assay.

SBC-5 = type: functional, cell-based, Homo sapiens; conditions: Homo sapiens, SBC-5;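 further: cell viability assay read-out, IC50 is the concentration that inhibits growth of the cells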
Description: SANGER: Inhibition of human SBC-5 cell growth in a cell viability assay.

CTV-1 = type: functional, cell-based; conditions: Homo sapiens;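 further: growth inhibition of the cell line, read out with a cell viability assay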
Description: SANGER: Inhibition of human CTV-1 cell growth in a cell viability assay.

KE-37 = type: functional, cell-based; conditions: Homo sapiens;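 further: growth inhibition of KE-37 cells, read out with a cell viability assay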
Description: SANGER: Inhibition of human KE-37 cell growth in a cell viability assay.

NCI-H1993 = type: functional, cell-based, Homo sapiens; conditions: Homo sapiens, NCI-H1993;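 further: growth inhibition of the cancer cell line, assessed with a cell viability assay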
Description: SANGER: Inhibition of human NCI-H1993 cell growth in a cell viability assay.

8505C = type: functional, cell-based, Homo sapiens; conditions: Homo sapiens, 8505C
Description: SANGER: Inhibition of human 8505C cell growth in a cell viability assay.

NB69 = type: functional, cell-based, Homo sapiens; conditions: Homo sapiens, NB69;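 further: growth inhibition of NB69 cells, determined by a cell viability assay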
Description: SANGER: Inhibition of human NB69 cell growth in a cell viability assay.

Structure (SMILES): CCOc1nc(NC(=O)Cc2cc(OC)ccc2OC)cc(N)c1C#N
- pIC50 (G-401): < 5.00
- pIC50 (NCI-H23): < 5.00
- pIC50 (CAL-72): < 5.00
- pIC50 (KM12): < 5.00
- pIC50 (HCC1806): < 5.00
- pIC50 (LU-99A): < 5.00
- pIC50 (NCI-H650): < 5.00
- pIC50 (PSN1): < 5.00
- pIC50 (HuCCT-1): < 5.00
- pIC50 (HT1197): < 5.00
- pIC50 (COR-L88): < 5.00
- pIC50 (A673): < 5.00
- pIC50 (A498): < 5.00
- pIC50 (CTB-1): < 5.00
- pIC50 (NCI-H1563): < 5.00
- pIC50 (ABC-1): < 5.00
- pIC50 (NCI-H1755): < 5.00
- pIC50 (COLO-668): < 5.00
- pIC50 (LCLC-103H cell line): < 5.00
- pIC50 (Huh-7): < 5.00
- pIC50 (NB12): < 5.00
- pIC50 (NCI-H1693): < 5.00
- pIC50 (MC116): < 5.00
- pIC50 (HCC 2998): < 5.00
- pIC50 (KYSE-140): < 5.00
- pIC50 (BV-173): < 5.00
- pIC50 (CaR-1): < 5.00
- pIC50 (NCI-H2342): < 5.00
- pIC50 (A 172): < 5.00
- pIC50 (A101D): < 5.00
- pIC50 (EGI-1): < 5.00
- pIC50 (KGN): < 5.00
- pIC50 (CAL-33): < 5.00
- pIC50 (OAW-28): < 5.00
- pIC50 (KNS-81-FD): < 5.00
- pIC50 (MDA-MB-415): < 5.00
- pIC50 (NB17): < 5.00
- pIC50 (SJSA-1): < 5.00
- pIC50 (ChaGo-K-1): < 5.00
- pIC50 (SHP77): < 5.00
- pIC50 (WM-115): < 5.00
- pIC50 (C8166): < 5.00
- pIC50 (OAW-42): < 5.00
- pIC50 (SCC-15): < 5.00
- pIC50 (HT-1376): < 5.00
- pIC50 (SBC-5): < 5.00
- pIC50 (CTV-1): < 5.00
- pIC50 (KE-37): < 5.00
- pIC50 (NCI-H1993): < 5.00
- pIC50 (8505C): < 5.00
- pIC50 (NB69): < 5.00

Structure (SMILES): CC(=O)O[C@@H]1[C@@H](OC(C)=O)[C@@H](O)[C@H](Oc2c(-c3ccc(O)cc3)oc3cc(O)cc(O)c3c2=O)O[C@H]1C
- pIC50 (G-401): < 5.00
- pIC50 (NCI-H23): < 5.00
- pIC50 (CAL-72): 5.41
- pIC50 (KM12): < 5.00
- pIC50 (HCC1806): < 5.00
- pIC50 (LU-99A): < 5.00
- pIC50 (NCI-H650): < 5.00
- pIC50 (PSN1): < 5.00
- pIC50 (HuCCT-1): < 5.00
- pIC50 (HT1197): < 5.00
- pIC50 (COR-L88): < 5.00
- pIC50 (A673): < 5.00
- pIC50 (A498): < 5.00
- pIC50 (CTB-1): 5.14
- pIC50 (NCI-H1563): < 5.00
- pIC50 (ABC-1): < 5.00
- pIC50 (NCI-H1755): < 5.00
- pIC50 (COLO-668): < 5.00
- pIC50 (LCLC-103H cell line): < 5.00
- pIC50 (Huh-7): < 5.00
- pIC50 (NB12): < 5.00
- pIC50 (NCI-H1693): < 5.00
- pIC50 (MC116): < 5.00
- pIC50 (HCC 2998): < 5.00
- pIC50 (KYSE-140): < 5.00
- pIC50 (BV-173): 5.52
- pIC50 (CaR-1): < 5.00
- pIC50 (NCI-H2342): < 5.00
- pIC50 (A 172): 5.32
- pIC50 (A101D): < 5.00
- pIC50 (EGI-1): < 5.00
- pIC50 (KGN): < 5.00
- pIC50 (CAL-33): < 5.00
- pIC50 (OAW-28): < 5.00
- pIC50 (KNS-81-FD): < 5.00
- pIC50 (MDA-MB-415): < 5.00
- pIC50 (NB17): < 5.00
- pIC50 (SJSA-1): < 5.00
- pIC50 (ChaGo-K-1): < 5.00
- pIC50 (SHP77): < 5.00
- pIC50 (WM-115): < 5.00
- pIC50 (C8166): < 5.00
- pIC50 (OAW-42): < 5.00
- pIC50 (SCC-15): < 5.00
- pIC50 (HT-1376): < 5.00
- pIC50 (SBC-5): < 5.00
- pIC50 (CTV-1): < 5.00
- pIC50 (KE-37): < 5.00
- pIC50 (NCI-H1993): < 5.00
- pIC50 (8505C): < 5.00
- pIC50 (NB69): < 5.00
